Test results as given in patent US8367838B2, “Amines or amino alcohols as GLYT1 inhibitors” (Hoffmann-La Roche Inc., priority 2009, dated 2013).
Structures can show the parent of a compound that is named as a salt.

Target: T1, mGlyT-1b (Mus musculus, UniProt P28571)
T1 construct: host or cells: Flp-in-CHO
T1 sequence (P28571 1-651 isoform P28571-2): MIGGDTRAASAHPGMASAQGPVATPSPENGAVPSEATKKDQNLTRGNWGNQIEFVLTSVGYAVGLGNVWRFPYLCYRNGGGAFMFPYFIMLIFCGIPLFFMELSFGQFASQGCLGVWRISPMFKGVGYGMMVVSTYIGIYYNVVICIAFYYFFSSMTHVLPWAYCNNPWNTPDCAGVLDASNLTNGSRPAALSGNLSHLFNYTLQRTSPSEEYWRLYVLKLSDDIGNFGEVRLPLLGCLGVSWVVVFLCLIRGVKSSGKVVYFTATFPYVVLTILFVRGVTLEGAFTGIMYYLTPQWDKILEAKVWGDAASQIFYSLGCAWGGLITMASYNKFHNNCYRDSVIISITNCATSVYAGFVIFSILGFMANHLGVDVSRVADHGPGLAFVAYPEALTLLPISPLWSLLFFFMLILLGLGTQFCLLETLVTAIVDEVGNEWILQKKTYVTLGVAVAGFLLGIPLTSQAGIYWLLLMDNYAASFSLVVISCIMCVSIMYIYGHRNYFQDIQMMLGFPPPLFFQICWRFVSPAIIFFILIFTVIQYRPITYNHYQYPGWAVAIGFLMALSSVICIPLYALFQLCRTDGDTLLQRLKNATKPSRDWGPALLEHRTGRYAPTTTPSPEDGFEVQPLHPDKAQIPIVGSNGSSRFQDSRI
Test: Glycine uptake inhibition assay (mGlyT-1b), [3H]-glycine uptake in transfected Flp-in-CHO cells
Format: cell-based
Details: Flp-in-CHO cells transfected with mGlyT-1b cDNA; [3H]-glycine 60 nM and 25 μM non-radioactive glycine; 20 min preincubation at 22° C.; read-out: IC50 (μM) at GlyT-1; Ic50 (hglyt1b)
Experimental: Nutrient mixture F-12 (Gibco Life-technologies), fetal bovine serum (FBS) 5%, (Gibco life technologies), Penicillin/Streptomycin 1% (Gibco life technologies), Hygromycin 0.6 mg/ml (Gibco life technologies), Glutamine 1 mM Gibco life technologies).
150 mM NaCl, 10 mM Hepes-Tris, pH 7.4, 1 mM CaCl2, 2.5 mM KCl, 2.5 mM MgSO4, 10 mM (+) D-glucose. Flp-in™-CHO (Invitrogen Cat n° R758-07) cells stably transfected with mGlyT1b cDNA.
Glycine Uptake Inhibition Assay (mGlyT-1b)
On day 1 mammalian cells, (Flp-in™-CHO), transfected with mGlyT-1b cDNA, were plated at the density of 40,000 cells/well in complete F-12 medium, without hygromycin in 96-well culture plates. On day 2, the medium was aspirated and the cells were washed twice with uptake buffer (UB). The cells were then incubated for 20 min at 22° C. with either (i) no potential competitor, (ii) 10 mM non-radioactive glycine, (iii) a concentration of a potential inhibitor. A range of concentrations of the potential inhibitor was used to generate data for calculating the concentration of inhibitor resulting in 50% of the effect (e.g. IC50, the concentration of the competitor inhibiting glycine uptake of 50%). A solution was then immediately added containing [^3H]-glycine 60 nM (11-16 Ci/mmol) and 25 μM non-radioactive glycine. The plates were incubated with gentle shaking and the reaction was stopped by aspiration of the mixture and washing (three times) with ice-cold UB. The cells were lysed with scintillation liquid, shaken 3 hours and the radioactivity in the cells was counted using a scintillation counter.

IC50 [µM]	SMILES
0.261	COCc1cccc(-c2ccc([C@@H](O)[C@@H](N)c3ccc(Cl)cc3)cc2)c1 (racemic) [Example 60, rac-erythro-2-Amino-2-(4-chloro-phenyl)-1-(3′-methoxymethyl-biphenyl-4-yl)-ethanol hydrochloride]
0.06	N[C@@H](c1ccc(Cl)cc1)[C@H](O)c1ccc(-c2ccncc2)cc1 (racemic) [Example 61, rac-erythro-2-Amino-2-(4-chloro-phenyl)-1-(4-pyridin-4-yl-phenyl)-ethanol]
0.068	CS(=O)(=O)c1cccc(-c2ccc([C@@H](O)[C@@H](N)c3ccc(Cl)cc3)cc2)c1 (racemic) [Example 62, rac-erythro-2-Amino-2-(4-chloro-phenyl)-1-(3′-methanesulfonyl-biphenyl-4-yl)-ethanol]
0.09	N[C@@H](c1ccc(Cl)cc1)[C@H](O)c1ccc(-c2cccnc2)cc1 (racemic) [Example 63, rac-erythro-2-Amino-2-(4-chloro-phenyl)-1-(4-pyridin-3-yl-phenyl)-ethanol hydrochloride]
0.138	COc1cncc(-c2ccc([C@@H](O)[C@@H](N)c3ccc(Cl)cc3)cc2)c1 (racemic) [Example 64, rac-erythro-2-Amino-2-(4-chloro-phenyl)-1-[4-(5-methoxy-pyridin-3-yl)-phenyl]-ethanol]
0.173	CC(=O)Nc1cccc(-c2ccc([C@@H](O)[C@@H](N)c3ccc(Cl)cc3)cc2)c1 (racemic) [Example 67, rac-erythro-N-[4′-[2-Amino-2-(4-chloro-phenyl)-1-hydroxy-ethyl]-biphenyl-3-yl]-acetamide]
0.217	Nc1ccc(-c2ccc([C@@H](O)[C@@H](N)c3ccc(Cl)cc3)cc2)cn1 (racemic) [Example 69, rac-erythro-2-Amino-1-[4-(6-amino-pyridin-3-yl)-phenyl]-2-(4-chloro-phenyl)-ethanol]
0.297	N[C@@H](c1ccc(Cl)cc1)[C@H](O)c1ccc(-c2ccsc2)cc1 (racemic) [Example 70, rac-erythro-2-Amino-2-(4-chloro-phenyl)-1-(4-thiophen-3-yl-phenyl)-ethanol]
0.342	Cc1cccc(-c2ccc([C@@H](O)[C@@H](N)c3ccc(Cl)cc3)cc2)c1 (racemic) [Example 71, rac-erythro-2-Amino-2-(4-chloro-phenyl)-1-(3′-methyl-biphenyl-4-yl)-ethanol]
0.385	COc1cccc(-c2ccc([C@@H](O)[C@@H](N)c3ccc(Cl)cc3)cc2)c1 (racemic) [Example 72, rac-erythro-2-Amino-2-(4-chloro-phenyl)-1-(3′-methoxy-biphenyl-4-yl)-ethanol]
0.462	N[C@@H](c1ccc(Cl)cc1)[C@H](O)c1ccc(-c2ccccc2Cl)cc1 (racemic) [Example 73, rac-erythro-2-Amino-1-(2′-chloro-biphenyl-4-yl)-2-(4-chloro-phenyl)-ethanol]
0.544	N[C@@H](c1ccc(Cl)cc1)[C@H](O)c1ccc(-c2cccc(Cl)c2)cc1 (racemic) [Example 74, rac-erythro-2-Amino-1-(3′-chloro-biphenyl-4-yl)-2-(4-chloro-phenyl)-ethanol]
0.642	Cc1ccccc1-c1ccc([C@@H](O)[C@@H](N)c2ccc(Cl)cc2)cc1 (racemic) [Example 76, rac-erythro-2-Amino-2-(4-chloro-phenyl)-1-(2′-methyl-biphenyl-4-yl)-ethanol]
0.814	COc1ccc(-c2ccc([C@@H](O)[C@@H](N)c3ccc(Cl)cc3)cc2)cn1 (racemic) [Example 77, rac-erythro-2-Amino-2-(4-chloro-phenyl)-1-[4-(6-methoxy-pyridin-3-yl)-phenyl]-ethanol]
0.88	N[C@@H](c1ccc(Cl)cc1)[C@H](O)c1ccc(-c2cccc(OC(F)(F)F)c2)cc1 (racemic) [Example 78, rac-erythro-2-Amino-2-(4-chloro-phenyl)-1-(3′-trifluoromethoxy-biphenyl-4-yl)-ethanol]
0.93	N[C@@H](c1ccc(Cl)cc1)[C@H](O)c1ccc(-c2cccc(C(F)(F)F)c2)cc1 (racemic) [Example 79, rac-erythro-2-Amino-2-(4-chloro-phenyl)-1-(3′-trifluoromethyl-biphenyl-4-yl)-ethanol]

Second part, the compound before the results:

SMILES	IC50 [µM]
Cc1ccc([C@H](N)[C@H](O)c2ccc(OC3CCOCC3)cc2)cc1Cl (racemic) [Example 54, rac-erythro-[2-Amino-2-(3-chloro-4-methyl-phenyl)-1-[4-(tetrahydro-pyran-4-yloxy)-phenyl]-ethanol]	0.104
Cc1ccc([C@H](N)[C@H](O)c2ccc(OC3CCOC3)cc2)cc1Cl (mixture of isomers) [Example 55, rac-erythro-[2-Amino-2-(3-chloro-4-methyl-phenyl)-1-[4-(tetrahydro-furan-3-yloxy)-phenyl]-ethanol]	0.131
Cc1ccc([C@H](N)[C@H](O)c2ccc(OC(C)C)cc2)cc1Cl (racemic) [Example 56, rac-erythro-2-Amino-2-(3-chloro-4-methylphenyl)-1-(4-isopropoxy-phenyl)-ethanol]	0.381
Cc1ccc([C@H](N)[C@H](O)c2ccc(OC3CCOCC3)cc2)cc1F (racemic) [Example 57, rac-erythro-2-Amino-2-(3-fluoro-4-methyl-phenyl)-1-[4-(tetrahydro-pyran-4-yloxy)-phenyl]-ethanol]	0.202
N[C@@H](c1ccc(Cl)cc1)[C@H](O)c1ccc(OC(CF)CF)cc1 (racemic) [Example 58, rac-erythro-2-Amino-2-(4-chloro-phenyl)-1-[4-(2-fluoro-1-fluoromethyl-ethoxy)-phenyl]-ethanol]	0.478
N[C@@H](c1ccc(Cl)cc1)[C@H](O)c1ccc(OC2CCOCC2)cc1 (racemic) [Example 59, rac-erythro-2-Amino-2-(4-chloro-phenyl)-1-[4-(tetrahydro-pyran-4-yloxy)-phenyl]-ethanol]	0.054
N[C@@H](c1ccc(Cl)cc1)[C@H](O)c1ccc(-c2cncnc2)cc1 (racemic) [Example 65, rac-erythro-2-Amino-2-(4-chloro-phenyl)-1-(4-pyrimidin-5-yl-phenyl)-ethanol]	0.139
N[C@@H](c1ccc(Cl)cc1)[C@H](O)c1ccc(-c2cncc(F)c2)cc1 (racemic) [Example 66, rac-erythro-2-Amino-2-(4-chloro-phenyl)-1-[4-(5-fluoro-pyridin-3-yl)-phenyl]-ethanol]	0.152
N[C@@H](c1ccc(Cl)cc1)[C@H](O)c1ccc(-c2ccccc2F)cc1 (racemic) [Example 68, rac-erythro-2-Amino-2-(4-chloro-phenyl)-1-(2′-fluoro-biphenyl-4-yl)-ethanol]	0.18
Cc1nc(C)c(-c2ccc([C@@H](O)[C@@H](N)c3ccc(Cl)cc3)cc2)s1 (racemic) [Example 75, rac-erythro-2-Amino-2-(4-chloro-phenyl)-1-[4-(2,4-dimethyl-thiazol-5-yl)-phenyl]-ethanol]	0.582
N[C@@H](c1ccc(Cl)cc1)[C@H](O)c1ccc(N2CCOCC2)nc1 (racemic) [Example 80, rac-erythro-2-Amino-2-(4-chloro-phenyl)-1-(6-morpholin-4-yl-pyridin-3-yl)-ethanol]	1.04
N[C@@H](c1ccc(Cl)c(Cl)c1)[C@H](O)c1ccc(-c2cccnc2)cc1 (racemic) [Example 81, rac-erythro-2-Amino-2-(3,4-dichloro-phenyl)-1-(4-pyridin-3-yl-phenyl)-ethanol]	0.031
